# In patent US8163778B2 (Hoffmann-LA Roche Inc., priority 2007, dated 2012):
# Biological target: T1, human liver FBPase (Homo sapiens, UniProt P09467)
# T1 construct: made in house; host or cells: E. coli
# T1 sequence (P09467 2-338 limits assumed): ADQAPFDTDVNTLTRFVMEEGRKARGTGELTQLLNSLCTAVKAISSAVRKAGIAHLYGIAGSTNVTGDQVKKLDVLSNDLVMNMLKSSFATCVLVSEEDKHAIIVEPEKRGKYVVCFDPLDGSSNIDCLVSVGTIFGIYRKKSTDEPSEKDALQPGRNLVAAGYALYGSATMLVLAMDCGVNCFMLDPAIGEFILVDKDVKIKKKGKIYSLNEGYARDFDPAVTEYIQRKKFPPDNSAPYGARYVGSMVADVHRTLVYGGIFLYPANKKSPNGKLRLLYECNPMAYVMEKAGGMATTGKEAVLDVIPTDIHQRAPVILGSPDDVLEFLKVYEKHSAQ
# Assay: FBPase assay (malachite green phosphate release)
# Assay type: biochemical
# Settings: recombinant human liver FBPase, 50 μM fructose-1,6-bisphosphate
# Experimental: The following tests were carried out for evaluating the inhibitory activity of the compounds of the present invention against human liver FBPase (Swissprot Data base reference PO9467, entry F16P_HUMAN).
# Human liver FBPase cDNA (NM_000507) was purchased from Origene Technologies, Inc, subcloned in a vector for expression in E. Coli., and sequenced. Recombinant human liver FBPase (hlFBPase) was purified according to the following protocol that uses heat denaturation similarly to that described by El-Maghrabi et al. [El-Maghrabi, M. R. et al. “Isolation of a human liver fructose-1,6-bisphosphatase cDNA and expression of the protein in Escherichia coli.” J Biol Chem 268:9466-9472, 1993.]. Briefly, E. coli cells, transiently expressing very high levels of soluble and active human liver FBPase, were suspended in 20 mM Tris-HCl pH 7.5, 1 mM EDTA, 1 mM DTT and were lysed by French press. The soluble extract was heat denatured at 65° C. for 5 min, and insoluble, denatured proteins were removed by centrifugation. The extract was then applied to a BioRad Macro-Prep High Q column equilibrated with 20 mM Tris-HCl pH 7.5, 1 mM EDTA, 1 mM DTT and the flow-through (containing FBPase activity) was collected and applied to a BioRad Macro-Prep HS column equilibrated with 20 mM HEPES pH 7.2, 1 mM DTT. A gradient of increasing NaCl concentration was then applied to the HS column and fractions were collected. Fractions containing active FBPase were pooled and further purified by size exclusion chromatography on a Sephacryl S200 column equilibrated in 20 mM Tris-HCl pH 7.5, 150 mM NaCl, 1 mM EDTA, 1 mM DTT. Purity of the enzyme preparation was >90% as assessed by Mass spectrometry.
# Recombinant human liver FBPase (hlFBPase) activity was assayed through measuring the inorganic phosphate release that results from the hydrolysis of Fructose-1,6-bisphosphate by the enzyme. As described by Baykov A. A. et al. in [Baykov A. A et al., “Malachite Green procedure for orthophosphate determination and its use in alkaline phosphatase-based enzyme immunoassays”. Anal. Biochem., 171:266-270, 1988], inorganic phosphate can be readily quantified by spectrophotometry at 620 nm after complexation with ammonium molybdate/malachite green reagent. Enzymatic reaction was carried out with modifications of the procedure described by Wright S. W. et al. [Wright S. W. et al., “Anilinoquinazoline inhibitors of Fructose-1,6-bisphosphatase bind to a novel allosteric site: synthesis, in vitro characterization, and X-ray crystallography”. J. Med. Chem. 45:3865-3877, 2002]. Specifically, the reaction was carried out in 96 well plates in a final volume of 100 μl in the presence or in the absence of allosteric inhibitors. Reaction was started adding 25 ng of hlFBPase to the reaction mixture containing 50 mM HEPES-KOH buffer pH 7.2, 2 mM MgCl2, 2 mM EDTA, 1 mM DTT, 50 μM fructose-1,6-bisphosphate and 1% DMSO. After 50 minutes incubation at room temperature, the phosphate released was allowed to form a colored complex for 10 min by adding 150 μl of ammonium molybdate/malachite green reagent containing 0.03% malachite green, 0.2% ammonium molybdate, 0.05% Triton X-100 and 0.7 M H2SO4 in water that was stirred for 30 min at room temperature and filtered through 0.2 μm filter. Under these conditions, the assay was linear with time and able to detect FBPase inhibition after spectrophotometric read-out at 620 nm.
row,Compound,IC50 [nM]
1,"COCCc1sc(S(=O)(=O)NC(=O)Nc2cc(Br)cc(N3CCOCC3)n2)cc1C [Compound 31, N-[(4-Bromo-6-morpholin-4-ylpyridin-2-yl)carbamoyl]-5-(2-methoxyethyl)-4-methylthiophene-2-sulfonamide]",429
2,"COCCc1sc(S(=O)(=O)NC(=O)Nc2cc(C(F)(F)F)ccn2)cc1C [Compound 33, 5-(2-Methoxyethyl)-4-methyl-N-{[4-(trifluoromethyl)pyridin-2-yl]carbamoyl}thiophene-2-sulfonamide]",1660
3,"CCOc1cc(NC(=O)NC)nc(NC(=O)NS(=O)(=O)c2cc(C)c(CCOC)s2)c1 [Compound 35, N-({4-Ethoxy-6-[(methylcarbamoyl)amino]pyridin-2-yl}carbamoyl)-5-(2-methoxyethyl)-4-methylthiophene-2-sulfonamide]",494
4,"CNC(=O)Nc1cc(OC)cc(NC(=O)NS(=O)(=O)c2cc(C)c(OCCOC)s2)n1 [Compound 38, 5-(2-Methoxyethoxy)-N-({4-methoxy-6-[(methylcarbamoyl)amino]pyridin-2-yl}carbamoyl)-4-methylthiophene-2-sulfonamide]",582
5,"Cc1cccc(S(=O)(=O)NC(=O)Nc2cc(Br)cc(NCC(F)F)n2)c1 [Compound 39, N-({4-Bromo-6-[(2,2-difluoroethyl)amino]pyridin-2-yl}carbamoyl)-3-methylbenzenesulfonamide]",610
6,"CCOc1cc(NC(N)=O)nc(NC(=O)NS(=O)(=O)c2cc(C)c(CCOC)s2)c1 [Compound 40, N-{[6-(Carbamoylamino)-4-ethoxypyridin-2-yl]carbamoyl}-5-(2-methoxyethyl)-4-methylthiophene-2-sulfonamide]",631
7,"O=C(Nc1cc(Br)cc(NCC(F)F)n1)NS(=O)(=O)c1cccc(Cl)c1 [Compound 41, N-({4-Bromo-6-[(2,2-difluoroethyl)amino]pyridin-2-yl}carbamoyl)-3-chlorobenzenesulfonamide]",696
8,"COCCc1sc(S(=O)(=O)NC(=O)Nc2cc(C(F)(F)F)cc(-c3ccc(C(F)(F)F)cc3)n2)cc1C [Compound 42, 5-(2-Methoxyethyl)-4-methyl-N-({4-(trifluoromethyl)-6-[4-(trifluoromethyl)phenyl]pyridin-2-yl}carbamoyl)thiophene-2-sulfonamide]",760
9,"COCCc1sc(S(=O)(=O)NC(=O)Nc2cc(C)cc(C3CCc4ccccc4C3)n2)cc1C (stereo not drawn) [Compound 46, 5-(2-Methoxyethyl)-4-methyl-N-{[4-methyl-6-(1,2,3,4-tetrahydronaphthalen-2-yl)pyridin-2-yl]carbamoyl}thiophene-2-sulfonamide]",937
10,"O=C(Nc1cc(Br)cc(NCC(F)F)n1)NS(=O)(=O)c1ccc2c(c1)CCO2 [Compound 47, N-({4-Bromo-6-[(2,2-difluoroethyl)amino]pyridin-2-yl}carbamoyl)-2,3-dihydro-1-benzofuran-5-sulfonamide]",1020
11,CNC(=O)Nc1cc(OC)cc(NC(=O)NS(=O)(=O)c2cn(C)c3c(OCCOC)cccc23)n1 [Compound 49],1060
12,"CNC(=O)Nc1cc(S(C)(=O)=O)cc(NC(=O)NS(=O)(=O)c2cc(C)c(CCOC)s2)n1 [Compound 50, 5-(2-Methoxyethyl)-4-methyl-N-({6-[(methylcarbamoyl)amino]-4-(methylsulfonyl)pyridin-2-yl}carbamoyl)thiophene-2-sulfonamide]",1090
13,"COCCOc1ccc(S(=O)(=O)NC(=O)Nc2cc(Br)cc(NCC(F)F)n2)cc1C [Compound 51, N-({4-Bromo-6-[(2,2-difluoroethyl)amino]pyridin-2-yl}carbamoyl)-4-(2-methoxyethoxy)-3-methylbenzenesulfonamide]",1110
14,"COCCc1sc(S(=O)(=O)NC(=O)Nc2cc(Br)cc(NC(=O)N(C)C)n2)cc1C [Compound 54, N-({4-Bromo-6-[(dimethylcarbamoyl)amino]pyridin-2-yl}carbamoyl)-5-(2-methoxyethyl)-4-methylthiophene-2-sulfonamide]",1520
15,"O=C(Nc1cc(Br)ccn1)NS(=O)(=O)c1cccc(Cl)c1 [Compound 55, N-[(4-Bromopyridin-2-yl)carbamoyl]-3-chlorobenzenesulfonamide]",1550
16,"COCCc1sc(S(=O)(=O)NC(=O)Nc2cc(C)cc(N3CCc4ccccc4C3)n2)cc1C [Compound 56, N-{[6-(3,4-Dihydroisoquinolin-2(1H)-yl)-4-methylpyridin-2-yl]carbamoyl}-5-(2-methoxyethyl)-4-methylthiophene-2-sulfonamide]",1730

# More lines, now with the values ahead:
row,IC50 [nM],Compound
1,396,"Nc1cc(Br)cc(NC(=O)NS(=O)(=O)c2cccc(Cl)c2)n1 [Compound 28, N-[(6-Amino-4-bromopyridin-2-yl)carbamoyl]-3-chlorobenzenesulfonamide]"
2,420,"CNC(=O)Nc1cc(OC)cc(NC(=O)NS(=O)(=O)c2csc(COC)c2)n1 [Compound 29, 5-(Methoxymethyl)-N-({4-methoxy-6-[(methylcarbamoyl)amino]pyridin-2-yl}carbamoyl)thiophene-3-sulfonamide]"
3,428,"COCCc1sc(S(=O)(=O)NC(=O)Nc2cc(OC)cc(N)n2)cc1C [Compound 30, N-[(6-Amino-4-methoxypyridin-2-yl)carbamoyl]-5-(2-methoxyethyl)-4-methylthiophene-2-sulfonamide]"
4,433,"COCCc1sc(S(=O)(=O)NC(=O)Nc2cc(SC)cc(N)n2)cc1C [Compound 32, N-{[6-Amino-4-(methylthio)pyridin-2-yl]carbamoyl}-5-(2-methoxyethyl)-4-methylthiophene-2-sulfonamide]"
5,481,"Nc1cc(Br)cc(NC(=O)NS(=O)(=O)c2ccc3c(c2)CCO3)n1 [Compound 34, N-[(6-Amino-4-bromopyridin-2-yl)carbamoyl]-2,3-dihydro-1-benzofuran-5-sulfonamide]"
6,566,"Cc1cccc(S(=O)(=O)NC(=O)Nc2cc(Br)cc(N)n2)c1 [Compound 36, N-[(6-Amino-4-bromopyridin-2-yl)carbamoyl]-3-methylbenzenesulfonamide]"
7,574,"Nc1cc(Br)cc(NC(=O)NS(=O)(=O)c2ccc3c(c2)OCCO3)n1 [Compound 37, N-[(6-Amino-4-bromopyridin-2-yl)carbamoyl]-2,3-dihydro-1,4-benzodioxine-6-sulfonamide]"
8,834,"CSc1cc(N)nc(NC(=O)NS(=O)(=O)c2csc(C)c2)c1 [Compound 43, N-{[6-Amino-4-(methylthio)pyridin-2-yl]carbamoyl}-5-methylthiophene-3-sulfonamide]"
9,866,"COCCc1sc(S(=O)(=O)NC(=O)Nc2cc(SC)cc(NCCF)n2)cc1C [Compound 45, N-({6-[(2-Fluoroethyl)amino]-4-(methylthio)pyridin-2-yl}carbamoyl)-5-(2-methoxyethyl)-4-methylthiophene-2-sulfonamide]"
10,1020,"COCCc1sc(S(=O)(=O)NC(=O)Nc2cc(SC)cc(NCCO)n2)cc1C [Compound 48, N-({6-[(2-Hydroxyethyl)amino]-4-(methylthio)pyridin-2-yl}carbamoyl)-5-(2-methoxyethyl)-4-methylthiophene-2-sulfonamide]"
11,1480,"COc1cccc2c(S(=O)(=O)NC(=O)Nc3cc(SC)cc(N)n3)cn(C)c12 [Compound 53, N-{[6-Amino-4-(methylthio)pyridin-2-yl]carbamoyl}-7-methoxy-1-methyl-1H-indole-3-sulfonamide]"
